# In patent publication US9872904B2, “Photoimmunoconjugates for use in photodynamic therapy” (Fraunhofer-Gesellschaft zur Foerderung der angewandten …, priority 2012, dated 2018):
# Key:
# [1] = test system: EGFR^− cell lines L540 and CHO-K1; assay: Confocal microscopy binding and internalization, EGFR^− cells; format: cell-based, human; details: 4° C. and 37° C.
# Experimental: (§1) Images were visualized with a TCS SP5 confocal microscope (LEICA Microsystem, Wetzlar, Germany). Cells were prepared as described above for flow cytometry. Binding efficiency was determined by incubating cells with the labeled fusion proteins for 30 min on ice. Internalization was monitored by incubating cells with the labeled fusion proteins for 30 min at 37° C.
# [2] = test system: caspase-3 and caspase-7; assay: Apo-ONE Homogeneous Caspase-3/7 Assay; format: cell-based, human; details: 200 nM; 24 h after light activation; A431, MDA-MB-231, MDA-MB468, SiHa and CHO-K1 cells analyzed
# Experimental: (§2) Control cultures were incubated with 500 μg/ml zeocin instead of the photosensitizer. The cells were then irradiated with 24 J/cm^2 broadband visible/near infrared light using Hydrosun type 505, 7-mm water cuvette and orange filter OG590, spectrum in the range 580-1400 nm (Hydrosun Medizintechnik GmbH, Müllheim, Germany) and incubated for a further 24 h at 37° C. in a 5% CO2 atmosphere.
# Caspase-3/7 activity in cell lysates was determined using the Apo-ONE Caspase-3/7 assay (Promega, Mannheim, Germany) 24 h after light activation. Briefly, 100 μl of Apo-ONE reagent was added to the cells, and they were incubated for 6 h before fluorescence readings were taken with an ELISA plate reader Elisareader ELx808 (Bio-TEK, Bad Friedrichsahll, Germany) using an excitation wavelength of 485 nm and an emission wavelength of 535 nm. The concentration of ROS was determined by measuring the 485/535 nm fluorescence ratio of H2DCFDA (Invitrogen, Darmstadt, Germany). […] The cells were washed twice with warm PBS containing 2.5% FCS, cultured for 2 h in […] medium and illuminated as described above. Fluorescence readings were taken directly after illumination. A blank probe (cells and medium) reading was used as the background and subtracted from all the sample readings.
# [3] = test system: CHO-K1; assay: XTT cell proliferation assay (phototoxicity), CHO-K1 negative control; format: cell-based, Chinese hamster; details: CHO-K1 exposed to 800 nM; with light activation
# Experimental: All cell lines were […], including the EGFR^+ A431, MDA-MB-231, MDA-MB468 and SiHa cells, and the EGFR^− L540, CHO-K1 and HEK-293T cells. A431, L540, CHO-K1 and HEK-293T cells were cultured in RPMI-1640 medium supplemented with 2 mM L-glutamine, 10% (v/v) fetal bovine serum (FBS) and 100 U/ml penicillin-streptomycin. MDA-MB-231, MDA-MB468 and SiHa cells were cultured in DMEM with 10% (v/v) fetal bovine serum (FBS) and 100 U/ml penicillin-streptomycin. All cells were incubated at 37° C. in a 5% CO2 atmosphere. All media and additives were obtained from Invitrogen, Darmstadt, Germany.
# as §2
# Cell viability was determined using the XTT cell proliferation kit II (Roche, Mannheim Germany), 24 h after light activation. […] Reduction of XTT to formazan by viable tumor cells was monitored colorimetrically at an absorbance wavelength of 450 nm and a reference wavelength of 630 nm using an ELISA plate reader Elisareader ELx808 (Bio-TEK, Bad Friedrichsahll, Germany).
# [4] = test system: A431 cells; assay: ROS generation (carboxy-H2DCFDA fluorescence) in photosensitized A431 cells; format: cell-based, human; details: 200 nM
# Experimental: Caspase-3/7 activity in cell lysates was determined using the Apo-ONE Caspase-3/7 assay (Promega, Mannheim, Germany) 24 h after light activation. […] The cells were washed twice with warm PBS containing 2.5% FCS, cultured for 2 h in […] medium and illuminated as described above. Fluorescence readings were taken directly after illumination. A blank probe (cells and medium) reading was used as the background and subtracted from all the sample readings.
# [5] = test system: A431, MDA-MB-231, MDA-MB468 and SiHa cells; assay: Confocal microscopy binding and internalization, EGFR^+ cells; format: cell-based, human
# Experimental: as §1
substance,measurement,setting,value
scFv-425-SNAP-Ce6,Ce6 fluorescence signal (confocal microscopy),[1],no signal was detected
same,levels of caspase-3 and caspase-7,[2],increased
same,cell viability,[3],remained unaffected
same,ROS synthesis (DCF 485/535-nm fluorescence),[4]; after light activation,burst of ROS synthesis
same,ROS levels (DCF 485/535-nm fluorescence),[4]; non-irradiated cells,only a small increase in ROS levels
same,membrane staining (confocal microscopy),"[5]; 0.5 μg, 30 min at 4° C.","strong, specific and homogeneous membrane staining"
same,"internalization (uptake into cells, confocal microscopy)",[5]; 30-min incubation at 37° C.,specifically and efficiently taken up
